What was measured:
[1] = biological target: Bs GDH (Bacillus subtilis, UniProt P12310); experiment: full steady-state kinetics, ordered bi-bi fit, […] nm; format: biochemical; details: cofactor and glucose varied, 35 mM Tris-HCl pH 8.0, 25 °C
[2] = biological target: XenA (Pseudomonas putida, UniProt Q9R9V9); experiment: initial rate, absorbance at […] nm; format: biochemical; details: 0.2 mM NMNH, 5 mM ketoisophorone, 200 mM phosphate pH 7.5, 37 °C

Bs GDH, sequence (P12310 whole entry): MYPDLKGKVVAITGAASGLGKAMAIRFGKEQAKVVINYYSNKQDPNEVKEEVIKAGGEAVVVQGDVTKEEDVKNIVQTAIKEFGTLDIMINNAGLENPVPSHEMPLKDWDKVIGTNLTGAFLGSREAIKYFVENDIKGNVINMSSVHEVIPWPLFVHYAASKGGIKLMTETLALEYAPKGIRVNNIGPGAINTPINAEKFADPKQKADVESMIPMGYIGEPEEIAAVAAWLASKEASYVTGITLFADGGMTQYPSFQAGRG

| Compound | KB [1] | initial rate, absorbance at 340 nm [2] |
| --- | --- | --- |
| OC[C@H]1OC(O)[C@H](O)[C@@H](O)[C@@H]1O (stereo partly drawn) [D-glucose] | KA and KB are Michaelis constants for cofactor and substrate, respectively |  |
| NC(=O)C1=CN([C@@H]2O[C@H](COP(=O)(O)O)[C@@H](O)[C@H]2O)C=CC1 [NMNH] |  | reduced NMN^+ (NMNH) was also well accepted by XenA |

— PMC7546441 (Nature chemical biology, 2019)
